Broadly, the IC50 is the concentration that inhibits the measured activity by half.

Chain of MEK1 (Q02750 whole entry): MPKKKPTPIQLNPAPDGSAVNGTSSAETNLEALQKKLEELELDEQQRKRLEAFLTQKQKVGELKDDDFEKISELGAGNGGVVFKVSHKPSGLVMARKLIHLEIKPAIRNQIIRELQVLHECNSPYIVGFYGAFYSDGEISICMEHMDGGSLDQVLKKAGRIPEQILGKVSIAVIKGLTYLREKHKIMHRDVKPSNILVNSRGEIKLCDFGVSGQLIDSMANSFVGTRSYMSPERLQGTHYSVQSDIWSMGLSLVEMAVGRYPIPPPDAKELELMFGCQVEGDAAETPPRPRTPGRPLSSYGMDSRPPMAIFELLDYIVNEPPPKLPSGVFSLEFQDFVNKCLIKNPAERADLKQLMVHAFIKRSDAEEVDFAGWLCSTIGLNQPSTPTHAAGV

The first data set concerns the target MEK1 (Homo sapiens (Human), UniProt Q02750). Put plainly: MEK1 inhibition assay (Z'-LYTE biochemical assay). To be noted: MAP2K1 (MEK1)/inactive MAPK1 (ERK2)/Ser/Thr 03 cascade, 10 point titration; read-out: IC50 against MEK1. The protocol: MEK1 inhibitory activity of compounds were tested using the following procedure (protocol available at thermofisher.com/content/dam/LifeTech/migration/files/drug-discovery/pdfs.par.60256.file.dat/20130430%20ssbk%20customer%20protocol%20and%20assay%20conditions.pdf). The Z′-LYTE biochemical assay (ThermoFisher) employs a fluorescence-based, coupled-enzyme format and is based on the differential sensitivity of phosphorylated and non-phosphorylated peptides to proteolytic cleavage.
Test compounds in 100% DMSO were screened in 1% DMSO (final) in the well. For 10 point titrations, 3-fold serial dilutions are conducted from the starting concentration of 30 μM.
After the 1 hour incubation, 5 μL of a 1:1024 dilution of Development Reagent A (available from Invitrogen, catalog no. PV3295) was added.
ATP solutions were diluted to a 4× working concentration in Kinase Buffer (50 mM HEPES pH 7.5, 0.01% BRIJ-35, 10 mM MgCl2, 1 mM EGTA). ATP Km apparent was previously determined using a Z′-LYTE assay. The Development Reagent was diluted in Development Buffer (available from Invitrogen, catalog no. P3127).
Assay Protocol: 2.5 μL of 4× test compound or 100 nL of 100× Test Compound plus 2.4 μL Kinase Buffer, 5 μL of the 2× Peptide/Kinase Mixture, 2.5 μL of 4×ATP Solution were added to the plates and placed on a shake plate for 30-seconds. The kinase reaction was allowed to proceed for 60-minute at room temperature, before 5 μL of Development Reagent Solution was added, and the mixture agitated for 30-seconds on a shake plate. The mixture was incubated for 60-minute at room temperature. Fluorescence was measured using a plate reader and the data were analyzed.
This control yielded 100% cleaved peptide in the Development Reaction. The 100% Phosphorylation Control, which consisted of a synthetically phosphorylated peptide of the same sequence as the peptide substrate, was designed to allow for the calculation of percent phosphorylation. This control yielded a very low percentage of cleaved peptide in the Development Reaction. The 0% Phosphorylation and 100% Phosphorylation Controls allow for the calculation of the percent phosphorylation achieved in a specific reaction well.
The minimum emission ratio in a screen was established by the 0% Inhibition Control, which contained active kinase. This control was designed to produce a 10-50% phosphorylated peptide in the Kinase Reaction. […]
A known inhibitor control standard curve, 10 point titration, was run for each individual kinase on the same plate as the kinase to ensure the kinase was inhibited within an expected IC50 range previously determined.
The following controls are prepared for each concentration of Test Compound assayed. […] The expected value for a non-fluorescence compound should be 0%. […]
The data in Table A was calculated. […]
As to `O=c1c2c(Nc3ccc(I)cc3F)cncc2ccn1C[C@@H](O)CO` [Compound 1.001, (R)-2-(2,3-Dihydroxypropyl)-8-(2-fluoro-4-iodophenylamino)-2,6-naphthyridin-1(2H)-one], the IC50 is not above 150 nM.

Take `O=c1c2c(Nc3ccc(I)cc3F)cncc2ccn1C[C@H](O)CO` [Compound 1.002, (S)-2-(2,3-Dihydroxypropyl)-8-(2-fluoro-4-iodophenylamino)-2,6-naphthyridin-1(2H)-one]: the half-maximal inhibitory concentration (IC50) is not above 150 nM.

For the compound `O=C(O)Cn1ccc2cncc(Nc3ccc(I)cc3F)c2c1=O` [Compound 1.004, 2-(8-(2-Fluoro-4-iodophenylamino)-1-oxo-2,6-naphthyridin-2(1H)-yl)acetic acid], the IC50 is more than 1500 nM.

With `COC(=O)Cn1ccc2cncc(Nc3ccc(I)cc3F)c2c1=O` [Compound 1.005, Methyl 2-(8-(2-fluoro-4-iodophenylamino)-1-oxo-2,6-naphthyridin-2(1H)-yl)acetate], the IC50 was more than 1500 nM.

Tested on in another data set: not listed separately
Put plainly: Human liver S9 fraction stability assay. Format: in vitro ADME. To be noted: pH 7.4, human liver S9, 1 μM test compound, 2 mg/mL protein, 1 mM NADPH, 37° C., read-out: Liver S9 fraction stability, t1/2. The protocol: Compounds can be assessed for metabolic stability in human skin by assessing their rate of disappearance from human S9 skin fraction. Similarly, compounds can be assessed for metabolic stability in human liver by assessing their rate of disappearance from human S9 liver fraction. The protocol below is used to assess the difference between skin and hepatic metabolism.
The assay was carried out in 96-well microtiter plates at 37° C. Reaction mixtures (25 μL) contained a final concentration of 1 μM test compound, 2 mg/mL liver or skin protein, and 1 mM NADPH in buffer (100 mM potassium phosphate, pH 7.4 buffer with 1 mM EDTA, 3 mM MgCl2). At each of the time points (0, 15, 30, and 60 minutes), 150 μL of quench solution (100% acetonitrile with 0.1% formic acid) with internal standard was transferred to each well. Besides the zero minute controls, mixtures containing the same components except the NADPH were also prepared as the negative control. Verapamil or testosterone was included as a positive control to verify assay performance. Plates were sealed and centrifuged at 4° C. for 15 minutes at 4000 rpm. The supernatant was transferred to fresh plates for LC/MS/MS analysis.
All samples were analyzed on LC/MS/MS using an AB Sciex API 4000 instrument, coupled to a Shimadzu LC-20AD LC Pump system. Analytical samples were separated using a Waters Atlantis T3 dC18 reverse phase HPLC column (20 mm×2.1 mm) at a flow rate of 0.5 mL/min. The mobile phase consisted of 0.1% formic acid in water (solvent A) and 0.1% formic acid in 100% acetonitrile (solvent B).
The extent of metabolism was calculated as the disappearance of the test compound, compared to the 0-min control reaction incubations. Initial rates were calculated for the compound concentration and used to determine t1/2 values and subsequently, the intrinsic clearance, CLint=(0.693) (1/t1/2 (min)) (mL incubation/mg of S9 protein).
Table 4 lists t1/2 values for the above liver S9 stability assay. […]
On to `O=c1c2c(Nc3ccc(I)cc3F)cncc2ccn1OCCO` [Compound 1.007, 8-(2-Fluoro-4-iodophenylamino)-2-(2-hydroxyethoxy)-2,6-naphthyridin-1(2H)-one], for which the half-life at 1 μM fell in the range of 50 to 200 min.

Regarding `O=C1c2c(cncc2Nc2ccc(I)cc2F)CCN1OCCO` [Compound 1.010, 8-(2-Fluoro-4-iodophenylamino)-2-(2-hydroxyethoxy)-3,4-dihydro-2,6-naphthyridin-1(2H)-one], the half-life at 1 μM is 50 to 200 min.

For the compound `O=C1NCCc2cncc(Nc3ccc(I)cc3F)c21` [Compound 1.012, 8-((2-Fluoro-4-iodophenyl)amino)-3,4-dihydro-2,6-naphthyridin-1(2H)-one], the half-life at 1 μM was not above 50 min.

Values taken from patent publication US12378240B2, “Naphthyridinone-aniline compounds for treatment of dermal disorders” (NFlection Therapeutics, Inc., priority 2018, dated 2025).
